Reference: ChEMBL document CHEMBL1130685, “Anthelmintic beta-hydroxyketoamides (BKAs)” (1998)

Columns and labels:
Meriones unguiculatus [1] = assay: Compound was evaluated for percentage clearance of Haemonchus contortus from jirds at the dose of 68 mg/kg; type: functional
Meriones unguiculatus [2] = assay: Compound was evaluated for percentage clearance of Haemonchus contortus from jirds at dose of 25 mg/kg; type: functional

Cc1cc(O)c(C(=O)Nc2ccc(Br)cc2)c(=O)o1
Parasite_Clearance (Meriones unguiculatus [1]): 76%

O=C(Nc1ccc(Br)cc1)C1=C(O)c2ccccc2C1=O
Parasite_Clearance (Meriones unguiculatus [1]): 100%

O=C(Nc1ccc(Br)cc1)c1c(O)c2ccccc2oc1=O
Parasite_Clearance (Meriones unguiculatus [1]): 89%

O=C(Nc1ccc(Br)cc1)C1=C(O)C2C3C=CC(O3)C2C1=O (stereo not given)
Parasite_Clearance (Meriones unguiculatus [1]): 92%

O=C(Nc1ccc(Br)cc1)c1c(O)c2cccnc2oc1=O
Parasite_Clearance (Meriones unguiculatus [1]): 100%

O=C(Nc1ccc(Br)cc1)c1c(O)nc2sc(C(F)(F)F)nn2c1=O
Parasite_Clearance (Meriones unguiculatus [1]): 82%

CN1C(=O)C(=C(O)Nc2ccc(Br)cc2)C(=O)N(C)C1=O
Parasite_Clearance (Meriones unguiculatus [2]): 81% | Parasite_Clearance (Meriones unguiculatus [1]): 100%

O=C(Nc1ccc(Br)cc1)C1=C(O)[C@@H]2[C@H](C1=O)[C@@H]1C=C[C@H]2C1
Parasite_Clearance (Meriones unguiculatus [1]): 98%

Cn1c(=O)c(C(=O)Nc2ccc(Br)cc2)c(O)c2ccccc21
Parasite_Clearance (Meriones unguiculatus [1]): 81%
